melting point [°C]	Structure (SMILES)
130 to 132	COc1cc(C)c(S(=O)(=O)N(C)C)cc1[N+](=O)[O-] [Example 3, 4-Methoxy-2-methyl-5-nitro(N,N-dimethyl)benzenesulfonamide]
113	Cc1cc(C)c(S(=O)(=O)N(C)C)cc1[N+](=O)[O-] [Example 2, 2,4-Dimethyl-5-nitro(N,N-dimethyl)benzenesulfonamide]
